From patent US20230085307A1, “PYRIDAZINONE COMPOUND AND HERBICIDE” (NISSAN CHEMICAL CORPORATION, priority 2019, published 2023)

Assays:
[1] = test system: windgrass; test: Test Example 4: herbicidal effect by soil treatment (Table 19, symbol L); type: in vivo, windgrass (Apera spica-venti); details: amount of applied herbicide 320 g/ha
Outline: (§1)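 Emulsion of test compound, water-diluted to predetermined amount, sprayed on soil after sowing (seed depth ~1.5 cm, sterilized diluvial soil). Greenhouse, 25–30° C. Effect graded at three weeks post-spray.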

[2] = test system: persian speedwell; test: Test Example 5: herbicidal effect by foliage application, plastic box (Table 20, symbol R); type: in vivo, Persian speedwell (Veronica persica); details: foliage application, 320 g/ha, three weeks after application
Outline: (§2)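 Post-emergence foliar test in sterilized diluvial soil. Compound applied as water-diluted emulsion at a predetermined rate to 14-day-old plants; evaluation at three weeks.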

[3] = test system: redroot pigweed; test: Test Example 4: herbicidal effect by soil treatment (Table 19, symbol N); type: in vivo, redroot pigweed (Amaranthus retroflexus); details: amount of applied herbicide 320 g/ha
Outline: as §1

[4] = test system: persian speedwell; test: Test Example 4: herbicidal effect by soil treatment (Table 19, symbol R); type: in vivo, Persian speedwell (Veronica persica); details: amount of applied herbicide 320 g/ha
Outline: as §1

[5] = test system: chickweed; test: Test Example 4: herbicidal effect by soil treatment (Table 19, symbol P); type: in vivo, common chickweed (Stellaria media); details: amount of applied herbicide 320 g/ha
Outline: as §1

[6] = test system: barnyard grass; test: Test Example 3: herbicidal effect by foliage application, Wagner pot (Table 18, symbol H); type: in vivo, barnyard grass (Echinochloa crus-galli); details: 320 g/ha
Outline: (§3)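 Plants were sown in alluvial soil held under 0.1–0.5 cm standing water and grown 14 days in a greenhouse at 25–30 °C. An emulsifiable formulation, water-diluted to the set dose, was then sprayed onto the foliage, and effects were scored three weeks later using previously defined criteria.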

[7] = test system: rice flat sedge; test: Test Example 3: herbicidal effect by foliage application, Wagner pot (Table 18, symbol E); type: in vivo, rice flat sedge (Cyperus iria); details: 320 g/ha
Outline: as §3

[8] = test system: wild oat; test: Test Example 4: herbicidal effect by soil treatment (Table 19, symbol I); type: in vivo, wild oat (Avena fatua); details: amount of applied herbicide 320 g/ha
Outline: as §1

[9] = test system: barnyard grass; test: Test Example 5: herbicidal effect by foliage application, plastic box (Table 20, symbol H); type: in vivo, barnyard grass (Echinochloa crus-galli); details: foliage application, 320 g/ha, three weeks after application
Outline: as §2

[10] = test system: blackgrass; test: Test Example 5: herbicidal effect by foliage application, plastic box (Table 20, symbol J); type: in vivo, blackgrass (Alopecurus myosuroides); details: foliage application, 320 g/ha, three weeks after application
Outline: as §2

[11] = test system: wild oat; test: Test Example 5: herbicidal effect by foliage application, plastic box (Table 20, symbol I); type: in vivo, wild oat (Avena fatua); details: foliage application, 320 g/ha, three weeks after application
Outline: as §2

[12] = test system: velvetleaf; test: Test Example 4: herbicidal effect by soil treatment (Table 19, symbol M); type: in vivo, velvetleaf (Abutilon theophrasti); details: amount of applied herbicide 320 g/ha
Outline: as §1

[13] = test system: southern crabgrass; test: Test Example 4: herbicidal effect by soil treatment (Table 19, symbol F); type: in vivo, southern crabgrass (Digitaria ciliaris); details: amount of applied herbicide 320 g/ha
Outline: as §1

[14] = test system: green foxtail; test: Test Example 5: herbicidal effect by foliage application, plastic box (Table 20, symbol G); type: in vivo, green foxtail (Setaria viridis); details: foliage application, 320 g/ha, three weeks after application
Outline: as §2

[15] = test system: false cleavers; test: Test Example 5: herbicidal effect by foliage application, plastic box (Table 20, symbol Q); type: in vivo, false cleavers (Galium spurium); details: foliage application, 320 g/ha, three weeks after application
Outline: as §2

[16] = test system: green foxtail; test: Test Example 4: herbicidal effect by soil treatment (Table 19, symbol G); type: in vivo, green foxtail (Setaria viridis); details: amount of applied herbicide 320 g/ha
Outline: as §1

[17] = test system: chickweed; test: Test Example 5: herbicidal effect by foliage application, plastic box (Table 20, symbol P); type: in vivo, common chickweed (Stellaria media); details: foliage application, 320 g/ha, three weeks after application
Outline: as §2

[18] = test system: false cleavers; test: Test Example 4: herbicidal effect by soil treatment (Table 19, symbol Q); type: in vivo, false cleavers (Galium spurium); details: amount of applied herbicide 320 g/ha
Outline: as §1

[19] = test system: lambsquarters; test: Test Example 5: herbicidal effect by foliage application, plastic box (Table 20, symbol O); type: in vivo, lambsquarters (Chenopodium album); details: foliage application, 320 g/ha, three weeks after application
Outline: as §2

[20] = test system: barnyard grass; test: Test Example 4: herbicidal effect by soil treatment (Table 19, symbol H); type: in vivo, barnyard grass (Echinochloa crus-galli); details: amount of applied herbicide 320 g/ha
Outline: as §1

[21] = test system: redroot pigweed; test: Test Example 5: herbicidal effect by foliage application, plastic box (Table 20, symbol N); type: in vivo, redroot pigweed (Amaranthus retroflexus); details: foliage application, 320 g/ha, three weeks after application
Outline: as §2

[22] = test system: Italian ryegrass; test: Test Example 4: herbicidal effect by soil treatment (Table 19, symbol K); type: in vivo, Italian ryegrass (Lolium multiflorum); details: amount of applied herbicide 320 g/ha
Outline: as §1

[23] = test system: Chinese sprangletop; test: Test Example 3: herbicidal effect by foliage application, Wagner pot (Table 18, symbol D); type: in vivo, chinese sprangletop (Leptochloa chinensis); details: 320 g/ha
Outline: as §3

[24] = test system: southern crabgrass; test: Test Example 5: herbicidal effect by foliage application, plastic box (Table 20, symbol F); type: in vivo, southern crabgrass (Digitaria ciliaris); details: foliage application, 320 g/ha, three weeks after application
Outline: as §2

[25] = test system: velvetleaf; test: Test Example 5: herbicidal effect by foliage application, plastic box (Table 20, symbol M); type: in vivo, velvetleaf (Abutilon theophrasti); details: foliage application, 320 g/ha, three weeks after application
Outline: as §2

[26] = test system: lambsquarters; test: Test Example 4: herbicidal effect by soil treatment (Table 19, symbol O); type: in vivo, lambsquarters (Chenopodium album); details: amount of applied herbicide 320 g/ha
Outline: as §1

[27] = test system: blackgrass; test: Test Example 4: herbicidal effect by soil treatment (Table 19, symbol J); type: in vivo, blackgrass (Alopecurus myosuroides); details: amount of applied herbicide 320 g/ha
Outline: as §1

[28] = test system: Italian ryegrass; test: Test Example 5: herbicidal effect by foliage application, plastic box (Table 20, symbol K); type: in vivo, Italian ryegrass (Lolium multiflorum); details: foliage application, 320 g/ha, three weeks after application
Outline: as §2

[29] = test system: windgrass; test: Test Example 5: herbicidal effect by foliage application, plastic box (Table 20, symbol L); type: in vivo, windgrass (Apera spica-venti); details: foliage application, 320 g/ha, three weeks after application
Outline: as §2

SMILES	herbicidal effect rating, L: windgrass [1]	herbicidal effect grade, R: persian speedwell [2]	herbicidal effect rating, N: redroot pigweed [3]	herbicidal effect rating, R: persian speedwell [4]	herbicidal effect rating, P: chickweed [5]	herbicidal effect on H (barnyard grass), rating 0-5 [6]	herbicidal effect on E (rice flat sedge), rating 0-5 [7]	herbicidal effect rating, I: wild oat [8]	herbicidal effect grade, H: barnyard grass [9]	herbicidal effect grade, J: blackgrass [10]	herbicidal effect grade, I: wild oat [11]	herbicidal effect rating, M: velvetleaf [12]	herbicidal effect rating, F: southern crabgrass [13]	herbicidal effect grade, G: green foxtail [14]	herbicidal effect grade, Q: false cleavers [15]	herbicidal effect rating, G: green foxtail [16]	herbicidal effect grade, P: chickweed [17]	herbicidal effect rating, Q: false cleavers [18]	herbicidal effect grade, O: lambsquarters [19]	herbicidal effect rating, H: barnyard grass [20]	further results
COc1cccc(-c2sc3ccccc3c2-c2c(O)c(C)nn(C)c2=O)c1F [1-048]	0 (Herbicidal rate of 5% or less (almost no effect))	4 (Herbicidal rate of 70% or more and less than 90%)	0 (Herbicidal rate of 5% or less (almost no effect))	1 (Herbicidal rate of 5% or more and less than 20%)	3 (Herbicidal rate of 40% or more and less than 70%)	4 (Herbicidal rate of 70% or more and less than 90%)	4 (Herbicidal rate of 70% or more and less than 90%)	0 (Herbicidal rate of 5% or less (almost no effect))	0 (Herbicidal rate of 5% or less (almost no effect))	0 (Herbicidal rate of 5% or less (almost no effect))	0 (Herbicidal rate of 5% or less (almost no effect))	0 (Herbicidal rate of 5% or less (almost no effect))	0 (Herbicidal rate of 5% or less (almost no effect))	0 (Herbicidal rate of 5% or less (almost no effect))	0 (Herbicidal rate of 5% or less (almost no effect))	0 (Herbicidal rate of 5% or less (almost no effect))	5 (Herbicidal rate of 90% or more (almost completely withered))	0 (Herbicidal rate of 5% or less (almost no effect))	0 (Herbicidal rate of 5% or less (almost no effect))	0 (Herbicidal rate of 5% or less (almost no effect))	herbicidal effect grade, N: redroot pigweed [21]: 0 (Herbicidal rate of 5% or less (almost no effect)); herbicidal effect rating, K: Italian ryegrass [22]: 0 (Herbicidal rate of 5% or less (almost no effect)); herbicidal effect on D (Chinese sprangletop), rating 0-5 [23]: 5 (Herbicidal rate of 90% or more (almost completely withered)); herbicidal effect grade, F: southern crabgrass [24]: 0 (Herbicidal rate of 5% or less (almost no effect)); herbicidal effect grade, M: velvetleaf [25]: 0 (Herbicidal rate of 5% or less (almost no effect)); herbicidal effect rating, O: lambsquarters [26]: 0 (Herbicidal rate of 5% or less (almost no effect)); herbicidal effect rating, J: blackgrass [27]: 0 (Herbicidal rate of 5% or less (almost no effect)); herbicidal effect grade, K: Italian ryegrass [28]: 0 (Herbicidal rate of 5% or less (almost no effect)); herbicidal effect grade, L: windgrass [29]: 0 (Herbicidal rate of 5% or less (almost no effect))
COc1cc(Cl)ccc1-c1sc2ccccc2c1-c1c(O)c(C)nn(C)c1=O [1-060]	1 (Herbicidal rate of 5% or more and less than 20%)	5 (Herbicidal rate of 90% or more (almost completely withered))	0 (Herbicidal rate of 5% or less (almost no effect))	5 (Herbicidal rate of 90% or more (almost completely withered))	4 (Herbicidal rate of 70% or more and less than 90%)	4 (Herbicidal rate of 70% or more and less than 90%)	4 (Herbicidal rate of 70% or more and less than 90%)	0 (Herbicidal rate of 5% or less (almost no effect))	3 (Herbicidal rate of 40% or more and less than 70%)	3 (Herbicidal rate of 40% or more and less than 70%)	3 (Herbicidal rate of 40% or more and less than 70%)	0 (Herbicidal rate of 5% or less (almost no effect))	0 (Herbicidal rate of 5% or less (almost no effect))	3 (Herbicidal rate of 40% or more and less than 70%)	5 (Herbicidal rate of 90% or more (almost completely withered))	0 (Herbicidal rate of 5% or less (almost no effect))	5 (Herbicidal rate of 90% or more (almost completely withered))	3 (Herbicidal rate of 40% or more and less than 70%)	5 (Herbicidal rate of 90% or more (almost completely withered))	0 (Herbicidal rate of 5% or less (almost no effect))	herbicidal effect grade, N: redroot pigweed [21]: 3 (Herbicidal rate of 40% or more and less than 70%); herbicidal effect rating, K: Italian ryegrass [22]: 0 (Herbicidal rate of 5% or less (almost no effect)); herbicidal effect on D (Chinese sprangletop), rating 0-5 [23]: 3 (Herbicidal rate of 40% or more and less than 70%); herbicidal effect grade, F: southern crabgrass [24]: 3 (Herbicidal rate of 40% or more and less than 70%); herbicidal effect grade, M: velvetleaf [25]: 3 (Herbicidal rate of 40% or more and less than 70%); herbicidal effect rating, O: lambsquarters [26]: 0 (Herbicidal rate of 5% or less (almost no effect)); herbicidal effect rating, J: blackgrass [27]: 0 (Herbicidal rate of 5% or less (almost no effect)); herbicidal effect grade, K: Italian ryegrass [28]: 3 (Herbicidal rate of 40% or more and less than 70%); herbicidal effect grade, L: windgrass [29]: 5 (Herbicidal rate of 90% or more (almost completely withered))
